The source made the active and inactive calls. For most assays here, no stated cut-off is given here; in the data, actives have a measured EC50 and inactives only a lower limit.
Columns and labels:
[1] = target: T1, Rac GTPase-activating protein 1 (Homo sapiens, UniProt Q9H0H5); assay: MgcRacGAP GTPase-activating activity inhibitors, confirmation, biochemical, ADP Hunter fluorescence, primary and confirmatory (AID 624330); type: functional
T1 sequence (Q9H0H5 whole entry): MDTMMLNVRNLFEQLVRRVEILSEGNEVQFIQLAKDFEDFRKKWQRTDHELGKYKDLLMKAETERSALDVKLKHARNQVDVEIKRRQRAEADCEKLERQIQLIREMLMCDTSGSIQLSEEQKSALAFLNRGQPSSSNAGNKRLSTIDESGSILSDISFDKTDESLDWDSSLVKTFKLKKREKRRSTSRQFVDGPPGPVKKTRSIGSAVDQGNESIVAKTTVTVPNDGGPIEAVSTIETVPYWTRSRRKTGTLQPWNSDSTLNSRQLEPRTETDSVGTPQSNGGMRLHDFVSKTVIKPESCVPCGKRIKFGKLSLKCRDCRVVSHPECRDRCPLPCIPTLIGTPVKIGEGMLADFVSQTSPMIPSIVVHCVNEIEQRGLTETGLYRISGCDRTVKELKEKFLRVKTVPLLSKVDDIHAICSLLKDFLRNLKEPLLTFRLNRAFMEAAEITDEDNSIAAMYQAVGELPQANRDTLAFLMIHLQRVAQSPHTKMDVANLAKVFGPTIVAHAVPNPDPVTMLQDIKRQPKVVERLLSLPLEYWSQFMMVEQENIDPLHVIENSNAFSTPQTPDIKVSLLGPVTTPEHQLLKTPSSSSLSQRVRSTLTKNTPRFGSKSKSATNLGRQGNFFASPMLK

[2] = Luminescence Cell-Based Dose Response HTS to Identify Activators of Luciferase Translation or Activity in H4 […] Cells. [Related pubchem assays: 1829 (Project Summary), 1814 (Primary HTS)]; type: functional
[3] = Luminescence Cell-Based Dose Confirmation HTS to Identify Activators of 5'UTR Stem-Loop Driven Alpha-Synuclein mRNA Translation in H4 Neuroglioblastoma Cells. [Related pubchem assays: 1829 (Project Summary), 1814 (Primary HTS)]; type: functional
[4] = tested on: H4; assay: Luminescence Cell-Based Dose Response HTS to Identify Activators of 5'UTR Stem-Loop Driven Prion Protein mRNA Translation in H4 Neuroglioblastoma Cells. [Related pubchem assays: 1829 (Project Summary), 1814 (Primary HTS)]; type: functional; settings: Homo sapiens
[5] = inhibitors of SNCA 5'UTR-driven reporter translation, confirmation, H4 neuroglioma cells, luminescence (AID 1988); type: functional, cell-based
[6] = inhibitors of firefly luciferase expression or activity, dose response, H4 neuroglioma cells, luminescence (AID 1990); type: functional, cell-based
[7] = Luminescence Cell-Based Dose Response HTS to Identify Inhibitors of 5'UTR Stem-Loop Driven Prion Protein mRNA Translation in H4 Neuroglioblastoma Cells. [Related pubchem assays: 1827 (Project Summary), 1813 (Primary HTS)]; type: functional
[8] = Luminescence Cell-Based Dose Retest to Confirm Inhibitors of Cancer Stem Cells. [Related pubchem assays (depositor defined):AID2717, AID2721]; type: functional; settings: Homo sapiens
[9] = HEp-2 cell cytotoxicity, dose response, cytotoxicity control for RSV inhibitor project, HTS (AID 2410); type: functional; settings: human respiratory syncytial virus
[10] = tested on: Streptococcus; assay: Group A Streptococcus viability loss, dose response, counter-screen for streptokinase expression inhibitor project, luminescence, BacTiterGlo (AID 1915); type: functional, organism-based;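 further: potency for reduction of bacterial viability or growth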
[11] = tested on: Streptococcus sp. 'group A'; assay: growth inhibition of control SK(-) GAS strain, dose response, counter-screen for streptokinase expression inhibitor project, luminescence, kanamycin, BacTiterGlo, confirmation (AID 1900); type: functional, organism-based
[12] = cytotoxicity toward NIH3T3 fibroblasts, dose response, counter-screen, cell-based, ATP luminescence, mouse fibroblasts (AID 2010); type: functional;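 further: cells exposed to compound for about 90 hours before reading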
[13] = inhibitors of intracellular T. cruzi replication, confirmation, NIH3T3 host cells, beta-gal luminescence (AID 2044); type: functional, cell-based;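 further: intracellular parasites grown in NIH/3T3 mouse fibroblasts as host cells; luminescent beta-galactosidase reporter signal from transgenic T. cruzi replicating inside host cells; inhibitors lower the luminescence signal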
[14] = NIH-3T3 fibroblast cytotoxicity, dose response, cytotoxicity control, cell-based, fluorescence, Alamar Blue, secondary assay (AID 2327); type: functional;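 further: NIH-3T3 mouse fibroblasts cultured with fluconazole at 8 µg/mL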
[15] = tested on: H9c2; assay: cells; type: functional, cell-based; settings: Rattus norvegicus, H9c2, Myocardium;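 further: confirmatory concentration-response retest of ultra-high-throughput screening hits for modulation of myocardial damage; cell death induced by hydrogen peroxide oxidative stress; compound pretreatment for 60 min then peroxide exposure for 2 h; potency is for protecting the cells against peroxide damage rather than for killing them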
[16] = target: T2, Protein RecA (Mycobacterium tuberculosis, UniProt P9WHJ3); assay: Fluorescence Cell-Free Homogeneous Dose Retest to Identify Inhibitors of RecA-Intein Splicing Activity. [Related pubchem assays (depositor defined):AID2097, AID2223, AID489010, AID492950]; type: functional
T2 sequence (P9WHJ3 whole entry): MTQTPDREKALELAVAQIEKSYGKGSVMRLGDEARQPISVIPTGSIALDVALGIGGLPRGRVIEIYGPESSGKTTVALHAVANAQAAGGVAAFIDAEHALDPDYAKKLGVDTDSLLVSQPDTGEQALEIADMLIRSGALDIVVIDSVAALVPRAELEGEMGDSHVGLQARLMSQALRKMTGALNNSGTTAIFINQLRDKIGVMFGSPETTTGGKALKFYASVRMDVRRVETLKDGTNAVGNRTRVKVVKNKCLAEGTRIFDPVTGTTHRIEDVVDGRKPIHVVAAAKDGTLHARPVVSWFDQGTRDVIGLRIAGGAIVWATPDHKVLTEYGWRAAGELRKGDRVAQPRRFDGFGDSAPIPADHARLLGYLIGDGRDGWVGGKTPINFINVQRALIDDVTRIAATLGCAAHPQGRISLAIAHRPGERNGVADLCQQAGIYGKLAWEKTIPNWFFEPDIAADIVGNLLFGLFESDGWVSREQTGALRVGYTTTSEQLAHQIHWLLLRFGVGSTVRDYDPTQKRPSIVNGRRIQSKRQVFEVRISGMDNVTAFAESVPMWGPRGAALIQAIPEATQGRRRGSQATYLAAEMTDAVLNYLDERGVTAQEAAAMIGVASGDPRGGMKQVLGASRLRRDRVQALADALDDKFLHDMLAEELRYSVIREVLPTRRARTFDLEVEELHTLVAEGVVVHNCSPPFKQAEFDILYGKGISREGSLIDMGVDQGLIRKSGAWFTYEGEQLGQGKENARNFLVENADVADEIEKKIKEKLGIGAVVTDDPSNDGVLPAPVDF

[17] = target: T3, Replicative DNA helicase DnaB (Mycobacterium tuberculosis, UniProt P9WMR3); assay: DnaB intein splicing inhibitors, dose response, biochemical, cell-free fluorescence (AID 449749); type: functional
T3 sequence (P9WMR3 whole entry): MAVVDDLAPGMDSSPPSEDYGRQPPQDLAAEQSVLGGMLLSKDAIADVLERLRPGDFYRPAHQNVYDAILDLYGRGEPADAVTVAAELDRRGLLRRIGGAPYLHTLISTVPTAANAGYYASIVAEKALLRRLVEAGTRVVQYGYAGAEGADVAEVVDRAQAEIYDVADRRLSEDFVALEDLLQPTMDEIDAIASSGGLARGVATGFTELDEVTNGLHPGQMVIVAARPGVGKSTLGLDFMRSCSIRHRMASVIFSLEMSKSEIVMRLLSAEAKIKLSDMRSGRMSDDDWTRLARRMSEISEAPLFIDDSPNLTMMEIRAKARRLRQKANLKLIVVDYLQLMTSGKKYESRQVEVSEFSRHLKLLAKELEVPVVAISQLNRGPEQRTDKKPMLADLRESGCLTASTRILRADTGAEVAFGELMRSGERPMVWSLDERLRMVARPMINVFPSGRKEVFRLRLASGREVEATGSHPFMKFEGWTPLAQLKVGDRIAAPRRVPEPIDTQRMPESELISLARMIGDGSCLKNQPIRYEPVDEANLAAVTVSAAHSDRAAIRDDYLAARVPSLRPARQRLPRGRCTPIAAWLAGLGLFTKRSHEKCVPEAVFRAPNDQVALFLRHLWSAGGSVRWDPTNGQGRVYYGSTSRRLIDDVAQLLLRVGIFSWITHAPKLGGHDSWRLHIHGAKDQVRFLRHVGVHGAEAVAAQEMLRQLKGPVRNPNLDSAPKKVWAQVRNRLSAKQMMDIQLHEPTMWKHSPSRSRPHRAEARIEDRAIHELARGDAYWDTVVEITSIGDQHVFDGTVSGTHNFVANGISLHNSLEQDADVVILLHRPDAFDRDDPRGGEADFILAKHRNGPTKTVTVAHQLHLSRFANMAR

CC(=O)c1c(C)c(C)c2n1CCn1c(C)ccc1-2
IC50 [1]: 29 µM (active)

CCn1ncc(C(=O)Nc2cccc(Cl)c2)c1C
EC50 [2]: 5.61 µM (active)
EC50 [3]: 0.244 µM (active)
EC50 [4]: 109 µM (active)

Cc1ccc(NC(=O)CN(C)CC(=O)Nc2ccc(F)c(F)c2F)c(Cl)c1
EC50 [5]: > 120 µM (not active)
EC50 [6]: > 120 µM (not active)
EC50 [7]: > 120 µM (not active)

COC(=O)c1c(NC(=O)CCNCc2ccco2)sc2c1CCC2
IC50 [1]: 138 µM (active)

COc1ccc(-c2nn(-c3ccccc3)cc2/C=C/C(=O)NCCCn2ccnc2)cc1OC
EC50 [5]: > 60 µM (not active)
EC50 [6]: > 120 µM (not active)
EC50 [7]: > 120 µM (not active)

CCOC(=O)c1cnc2c(OC)cccc2c1N1CCN(c2ccccc2OC)CC1
EC50 [5]: 8.6 µM (active)
EC50 [6]: 11.4 µM (active)
EC50 [7]: > 120 µM (not active)

C[C@@H]1CN([C@H](C)CO)C(=O)Cc2cc(NS(=O)(=O)c3ccc(Cl)cc3)ccc2O[C@H]1CN(C)Cc1ccc(C(F)(F)F)cc1
AC50 [8]: 3.11 µM (active)

CCOc1ccc(C(=O)Nc2ccc(S(=O)(=O)N3C[C@@H]4C[C@@H](C3)c3cccc(=O)n3C4)cc2)cc1
CC50 [9]: 23.7 µM (active)

O=C(NCc1ccc(F)cc1)C(=O)Nc1nc(C23CC4CC(CC(C4)C2)C3)cs1
EC50 [10]: 2.55 µM (active)
AC50 [8]: 1.91 µM (active)
EC50 [11]: 0.823 µM (active)

CN(C)c1ccc(/C=C2\CCC/C(=C\c3ccccc3)C2=O)cc1
AC50 [8]: 3.81 µM (active)

COc1ccc(CCNC(=O)c2coc(=O)c(Br)c2)cc1
AC50 [8]: 7.39 µM (active)

C=CCNC(=O)CN1CCN(C(c2ccccc2)c2ccccc2)CC1
IC50 [1]: 168 µM (active)

CCCCCSc1nc(N2CCOCC2)c2c(c1C#N)CC(C)(C)OC2
EC50 [5]: > 120 µM (not active)
EC50 [6]: > 120 µM (not active)
EC50 [7]: 19.8 µM (active)

Nc1n[nH]c(N)c1N=Nc1ccc2c(c1)OCO2
EC50 [12]: > 60 µM (not active)
IC50 [1]: 30.1 µM (active)
EC50 [13]: > 60 µM (not active)

CN(CC(=O)Nc1cccc(F)c1)C(=O)c1ccc(-c2ccc(Cl)cc2)o1
CC50 [9]: 23.1 µM (active)

Cc1c(Cl)cccc1N=C(S)N(Cc1cccs1)C1CCCC1
EC50 [5]: > 120 µM (not active)
EC50 [6]: > 120 µM (not active)
EC50 [7]: > 120 µM (not active)

CC1=C(C(=O)OC2CCCC2)C(c2coc3ccccc3c2=O)C2=C(O)CC(C)(C)CC2=N1 (stereo unspecified)
AC50 [8]: 97.3 µM (active)

O=C(NN1C(=O)NC2(CCCCC2)C1=O)c1ccc(-c2ccc(Cl)cc2)o1
CC50 [9]: 22.3 µM (active)

COc1ccc(C(=O)NNc2ccccc2)cc1OC
EC50 [14]: 7.89 µM (active)
AC50 [8]: 0.825 µM (active)

O=C(CSC1=N/C(=C/c2ccc(Cl)c(Cl)c2)C(=O)N1c1ccccc1F)NC1CC1
CC50 [9]: 24 µM (active)

Cc1cc(SCC(=O)c2cccs2)n2nc(C)c(-c3ccc(Cl)cc3)c2n1
AC50 [8]: 18.1 µM (active)

N#C/C=C1\Sc2ccccc2C(=O)N1CC(=O)N1CCN(S(=O)(=O)c2ccccc2)CC1
EC50 [2]: 16 µM (active)
EC50 [3]: 13.2 µM (active)
EC50 [4]: 46.7 µM (active)

COc1cc(/C=C/c2nnc3c4ccccc4ncn23)cc(OC)c1OC
IC50 [15]: > 79 µM (inactive)
EC50 [2]: 29.1 µM (active)
EC50 [3]: 8.84 µM (active)
EC50 [4]: > 120 µM (not active)

CCOc1cc(C=NNC(=O)c2cccc(S(=O)(=O)N3CCCC3)c2)ccc1O
IC50 [1]: 32.3 µM (active)

COc1nc(N/N=C/c2ccc(-c3ccccc3[N+](=O)[O-])o2)nc(N2CCOCC2)n1
EC50 [16]: 14.4 µM (active)
EC50 [2]: 22.5 µM (active)
AC50 [17]: 16 µM (active)
EC50 [3]: 12.4 µM (active)
EC50 [4]: 24.7 µM (active)

CC1(C)CC2CC(C)(CN2/C=N/c2sc3c(c2C#N)CC(C)(C)NC3(C)C)C1 (stereo unspecified)
AC50 [8]: 1.04 µM (active)

CCn1c(C)nc2cc(C(=O)N/N=C/c3ccc(O)cc3)ccc21
IC50 [1]: 66.7 µM (active)

CCCCc1ccc(/C(C)=N/Nc2cc(N3CCOCC3)nc(C)n2)cc1
EC50 [12]: > 60 µM (not active)
EC50 [13]: 2.06 µM (active)
AC50 [8]: 3.08 µM (active)
